In PubChem BioAssay AID330 (DTP/NCI, 2004):
Several values for one entry are separate records, joined by “and”; a condition that tells them apart may be missing. Identical values can stand only once. Toxic doses and inconclusive results are not listed. Peptide text beside a SMILES is read from it. * marks the point of attachment. OtBu = CC(C)(C)O*

System: P388 leukemia ip, CD2F1 mice, survival T/C
Test: NCI In Vivo Anticancer Drug Screen. Data for tumor model P388 Leukemia (intraperitoneal) in CD2F1 (CDF1) mice
Details: endpoint: median survival time, higher = longer survival
Outline: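 Mice carrying the transplanted tumor received test compound or vehicle. Survival was recorded in each group, and the value is the treated-group measurement divided by that of the vehicle-treated control group.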

[1] = dose: 60.0 mg/kg/injection, schedule: Q01DX005 (ip), vehicle: saline with Tween-80
[2] = dose: 120.0 mg/kg/injection, schedule: Q01DX005 (ip), vehicle: saline with Tween-80
[3] = dose: 240.0 mg/kg/injection, schedule: Q01DX005 (ip), vehicle: saline with Tween-80
[4] = dose: 50.0 mg/kg/injection, schedule: Q01DX005 (ip), vehicle: saline with Tween-80
[5] = dose: 100.0 mg/kg/injection, schedule: Q01DX005 (ip), vehicle: saline with Tween-80
[6] = dose: 200.0 mg/kg/injection, schedule: Q01DX005 (ip), vehicle: saline with Tween-80
[7] = dose: 6.25 mg/kg/injection, schedule: Q01DX009 (ip), vehicle: saline
[8] = dose: 12.5 mg/kg/injection, schedule: Q01DX009 (ip), vehicle: saline
[9] = dose: 25.0 mg/kg/injection, schedule: Q01DX009 (ip), vehicle: saline
[10] = dose: 100.0 mg/kg/injection, schedule: Q04DX003 (ip), vehicle: saline with Tween-80
[11] = dose: 200.0 mg/kg/injection, schedule: Q04DX003 (ip), vehicle: saline with Tween-80
[12] = dose: 400.0 mg/kg/injection, schedule: Q04DX003 (ip), vehicle: saline with Tween-80
[13] = dose: 50.0 mg/kg/injection, schedule: Q01DX005 (ip), vehicle: saline
[14] = dose: 100.0 mg/kg/injection, schedule: Q01DX005 (ip), vehicle: saline
[15] = dose: 200.0 mg/kg/injection, schedule: Q01DX005 (ip), vehicle: saline
[16] = dose: 50.0 mg/kg/injection, schedule: Q01DX005 (ip), vehicle: Klucel (hydroxypropylcellulose) (HPC)
[17] = dose: 100.0 mg/kg/injection, schedule: Q01DX005 (ip), vehicle: Klucel (hydroxypropylcellulose) (HPC)
[18] = dose: 200.0 mg/kg/injection, schedule: Q01DX005 (ip), vehicle: Klucel (hydroxypropylcellulose) (HPC)
[19] = dose: 50.0 mg/kg/injection, schedule: Q01DX009 (ip), vehicle: saline
[20] = dose: 3.13 mg/kg/injection, schedule: Q01DX009 (ip), vehicle: water
[21] = dose: 6.25 mg/kg/injection, schedule: Q01DX009 (ip), vehicle: water
[22] = dose: 100.0 mg/kg/injection, schedule: Q01DX009 (ip), vehicle: saline
[23] = dose: 200.0 mg/kg/injection, schedule: Q01DX009 (ip), vehicle: saline

## O=C1COc2ccccc2OCCOCCOc2ccccc2OC1
[1]
  T/C: 97 % of control
[2]
  T/C: 98 % of control
[3]
  T/C: 96 % of control

## Nc1cc(N)cc(C(=O)c2ccccc2)c1
dose: 100.0 mg/kg/injection, schedule: Q01DX009 (ip), vehicle: saline with Tween-80
  T/C: 95 % of control
dose: 200.0 mg/kg/injection, schedule: Q01DX009 (ip), vehicle: saline with Tween-80
  T/C: 95 % of control
dose: 400.0 mg/kg/injection, schedule: Q01DX009 (ip), vehicle: saline with Tween-80
  T/C: 90 % of control

## NC1=C(O)C(=O)C(c2cccc(O)c2)O1 (stereo not given)
[1]
  T/C: 103 % of control
[2]
  T/C: 100 % of control
[3]
  T/C: 103 % of control

## C=CCN1C(=O)CCN(S(=O)(=O)c2ccc(-n3nc(C(=O)O)cc3C)cc2)C1=S
[4]
  T/C: 103 % of control
[5]
  T/C: 107 % of control
[6]
  T/C: 99 % of control

## Cc1nc(O)c(-c2ccc(Cl)cc2)c(=O)[nH]1
[1]
  T/C: 102 % of control
[2]
  T/C: 109 % of control

## N#CN=[N+]([O-])c1ccccc1[N+](=O)[O-]
dose: 6.25 mg/kg/injection, schedule: Q04DX003 (ip), vehicle: Klucel (hydroxypropylcellulose) (HPC)
  T/C: 110 % of control
dose: 12.5 mg/kg/injection, schedule: Q04DX003 (ip), vehicle: Klucel (hydroxypropylcellulose) (HPC)
  T/C: 106 % of control

## COc1cccc(C2c3cc4c(cc3OC(C)(N3CCCC3)C2C)OCO4)c1O (stereo not given)
[1]
  T/C: 99 % of control
[2]
  T/C: 102 % of control
[3]
  T/C: 89 % of control

## CC(C)=CCC/C(C)=C/CC1=C(O)c2ccccc2C(=O)C1=O
dose: 1.56 mg/kg/injection, schedule: Q01DX009 (ip), vehicle: saline
  T/C: 98 % of control
dose: 3.12 mg/kg/injection, schedule: Q01DX009 (ip), vehicle: saline
  T/C: 100 % of control
[7]
  T/C: 100 % of control
[8]
  T/C: 104 % of control and 94 % of control

## O=C(CBr)c1cccc(OC(=O)c2ccccc2)c1
dose: 6.25 mg/kg/injection, schedule: Q01DX009 (ip), vehicle: saline with Tween-80
  T/C: 108 % of control
dose: 12.5 mg/kg/injection, schedule: Q01DX009 (ip), vehicle: saline with Tween-80
  T/C: 108 % of control

## CC(=O)OC1SCCn2c1nc1ccccc1c2=O (stereo not given)
[4]
  T/C: 106 % of control
[5]
  T/C: 104 % of control
[6]
  T/C: 99 % of control

## O=NN(CCCl)C(=O)Nc1ccccc1
dose: 0.5 mg/kg/injection, schedule: Q04DX003 (ip), vehicle: saline with Tween-80
  T/C: 200 % of control
dose: 1.25 mg/kg/injection, schedule: Q04DX003 (ip), vehicle: saline with Tween-80
  T/C: 150 % of control
dose: 2.5 mg/kg/injection, schedule: Q04DX003 (ip), vehicle: saline with Tween-80
  T/C: 179 % of control
dose: 5.0 mg/kg/injection, schedule: Q04DX003 (ip), vehicle: saline with Tween-80
  T/C: 233 % of control
[7]
  T/C: 227 % of control
[8]
  T/C: 118 % of control
dose: 12.5 mg/kg/injection, schedule: Q04DX003 (ip), vehicle: saline with Tween-80
  T/C: 250 % of control
[9]
  T/C: 95 % of control
dose: 25.0 mg/kg/injection, schedule: Q04DX003 (ip), vehicle: saline with Tween-80
  T/C: 91 % of control

## O=C1CSC(c2ccc(Cl)cc2)N1CCN1C(=O)CSC1c1ccc(Cl)cc1 (stereo not given)
[10]
  T/C: 95 % of control
[11]
  T/C: 93 % of control
[12]
  T/C: 88 % of control

## N#C/C(OC1OC(CO)C(O)C(O)C1O)=C(\C=C/C(=O)O)CC(=O)O (stereo not given)
[13]
  T/C: 105 % of control
[14]
  T/C: 106 % of control
[15]
  T/C: 105 % of control

## O=C(Nc1cccc(NC(=O)c2nn[nH]n2)n1)c1nn[nH]n1
[16]
  T/C: 105 % of control
[17]
  T/C: 105 % of control
[18]
  T/C: 99 % of control

## CC1(C)CC(=O)c2c(oc3cc4c5c(oc4cc23)CC(C)(C)CC5=O)C1
dose: 12.5 mg/kg/injection, schedule: Q01DX005 (ip), vehicle: saline with Tween-80
  T/C: 90 % of control
dose: 25.0 mg/kg/injection, schedule: Q01DX005 (ip), vehicle: saline with Tween-80
  T/C: 91 % of control
[5]
  T/C: 87 % of control
[6]
  T/C: 92 % of control

## CC1=CC(=O)N(NC(N)=O)C1=O
[7]
  T/C: 102 % of control and 110 % of control
[8]
  T/C: 105 % of control and 108 % of control
[9]
  T/C: 110 % of control and 123 % of control
[19]
  T/C: 109 % of control and 122 % of control

## N#Cc1ccc(NN=O)nc1
[20]
  T/C: 116 % of control and 123 % of control
[21]
  T/C: 159 % of control
dose: 12.5 mg/kg/injection, schedule: Q01DX009 (ip), vehicle: water
  T/C: 151 % of control and 169 % of control
dose: 25.0 mg/kg/injection, schedule: Q01DX009 (ip), vehicle: water
  T/C: 194 % of control and 268 % of control

## C[C@]12C=CC(=O)C[C@@H]1CC[C@@H]1[C@@H]2C(=O)C[C@]2(C)C(=O)CC[C@@H]12
[10]
  T/C: 108 % of control
[11]
  T/C: 91 % of control
[12]
  T/C: 108 % of control

## Cc1nc2c(cnn2CN2CCCCC2)c(=O)n1-c1ccccc1
[16]
  T/C: 100 % of control
[17]
  T/C: 101 % of control
[18]
  T/C: 107 % of control

## COc1cccc2c1C(=O)c1c(O)c3c(c(O)c1C2=O)CC(O)CC3OC1CC(N)C(O)C(C)O1 (stereo not given)
[20]
  T/C: 157 % of control
[21]
  T/C: 173 % of control

## N=c1c2ccccc2nc2n1CCCCCCC2
dose: 25.0 mg/kg/injection, schedule: Q04DX003 (ip), vehicle: Klucel (hydroxypropylcellulose) (HPC)
  T/C: 103 % of control
dose: 50.0 mg/kg/injection, schedule: Q04DX003 (ip), vehicle: Klucel (hydroxypropylcellulose) (HPC)
  T/C: 91 % of control

## C=C1SC(=Nc2cccc(OC)c2)N(c2nc(Cl)nc(Cl)n2)C1(C)C
[19]
  T/C: 99 % of control
[22]
  T/C: 102 % of control
[23]
  T/C: 98 % of control

## Nc1nnc2nc(CC(=O)c3ccccc3)c(=O)[nH]n12
dose: 60.0 mg/kg/injection, schedule: Q01DX005 (ip), vehicle: saline
  T/C: 96 % of control
dose: 120.0 mg/kg/injection, schedule: Q01DX005 (ip), vehicle: saline
  T/C: 100 % of control
dose: 240.0 mg/kg/injection, schedule: Q01DX005 (ip), vehicle: saline
  T/C: 100 % of control

## COc1ccc2c(N)cccc2c1
[19]
  T/C: 92 % of control
[22]
  T/C: 88 % of control
[23]
  T/C: 95 % of control

## C=[CH][Sn]([CH]=C)([c]1ccccc1)[c]1ccccc1
[13]
  T/C: 107 % of control
[14]
  T/C: 108 % of control
[15]
  T/C: 104 % of control

## O=[N+]([O-])c1cccn2cnnc12
[19]
  T/C: 98 % of control
[22]
  T/C: 87 % of control

## COC(=O)c1sc(N2CCCC2)nc1N
[1]
  T/C: 102 % of control
[2]
  T/C: 99 % of control
[3]
  T/C: 97 % of control

## CC(C)CC(NC(=O)C1CCCN1)C(=O)NC(CC(C)C)C(=O)OC(C)(C)C (stereo not drawn) (H-Pro-Leu-Leu-OtBu; configuration not given here)
[16]
  T/C: 102 % of control
[17]
  T/C: 99 % of control
[18]
  T/C: 96 % of control

## CCCNC(=S)N/N=C(/C)c1nccc2ccccc12
dose: 100.0 mg/kg/injection, schedule: Q04DX003 (ip), vehicle: Klucel (hydroxypropylcellulose) (HPC)
  T/C: 108 % of control
dose: 200.0 mg/kg/injection, schedule: Q04DX003 (ip), vehicle: Klucel (hydroxypropylcellulose) (HPC)
  T/C: 101 % of control
dose: 400.0 mg/kg/injection, schedule: Q04DX003 (ip), vehicle: Klucel (hydroxypropylcellulose) (HPC)
  T/C: 99 % of control

## Cn1c(-c2ccccc2)c(C(=O)CC(=O)CN2CCOCC2)c2ccccc21
dose: 100.0 mg/kg/injection, schedule: Q01DX001 (ip), vehicle: saline
  T/C: 98 % of control
dose: 200.0 mg/kg/injection, schedule: Q01DX001 (ip), vehicle: saline
  T/C: 108 % of control
dose: 400.0 mg/kg/injection, schedule: Q01DX001 (ip), vehicle: saline
  T/C: 97 % of control

## O=C(O)c1cnc2cc(F)ccc2c1Nc1ccc2c(c1)OCO2
dose: 60.0 mg/kg/injection, schedule: Q01DX005 (ip), vehicle: Klucel + Tween-80
  T/C: 97 % of control
dose: 120.0 mg/kg/injection, schedule: Q01DX005 (ip), vehicle: Klucel + Tween-80
  T/C: 94 % of control
dose: 240.0 mg/kg/injection, schedule: Q01DX005 (ip), vehicle: Klucel + Tween-80
  T/C: 89 % of control

## Nc1cc(-c2ccc(Br)cc2)nn1-c1nnc(-c2ccccc2)c(-c2ccccc2)n1
[4]
  T/C: 101 % of control
[5]
  T/C: 93 % of control
[6]
  T/C: 92 % of control
